Measured values as given in ChEMBL document CHEMBL6092216, “Development of α-Helical Antimicrobial Peptides with Imperfect Amphipathicity for Superior Activity and Selectivity” (J Med Chem, 2024).
Active and inactive are the calls of the source. No cut-off for these calls is given here.

Columns and labels:
Acinetobacter baumannii [1] = experiment: Antibiofilm activity against preformed Acinetobacter baumannii ATCC 19606 biofilms assessed as biofilm eradication at 1X to 10XMIC incubated for 24 hrs by crystal violet staining based analysis; type: functional, organism-based
HaCaT = experiment: Cytotoxicity against human HaCaT cells assessed as effect on cell viability at 3.13 to 400 ug/ml incubated for 24 hrs by CCK-8 assay; type: toxicity, cell-based; settings: dose 3.13-400 µg/ml
Escherichia coli [2] = experiment: Antibacterial activity against Escherichia coli 0894 assessed as inhibition of bacterial growth incubated for 24 hrs by tube microdilution assay; type: functional
Staphylococcus aureus [3] = experiment: Antibacterial activity against methicillin-resistant Staphylococcus aureus 51 assessed as inhibition of bacterial growth incubated for 24 hrs by tube microdilution assay; type: functional
Escherichia coli [4] = experiment: Antibacterial activity against Escherichia coli 5017 assessed as inhibition of bacterial growth incubated for 24 hrs by tube microdilution assay; type: functional
Staphylococcus aureus [5] = experiment: Antibacterial activity against Staphylococcus aureus ATCC 6538 infected in BALB/c mouse assessed as inhibition of bacterial colonization on wounded skin at 0.5 mg/ml applied on skin and measured after 2 hrs relative to control; type: functional
Staphylococcus aureus [6] = experiment: Antibiofilm activity against Staphylococcus aureus ATCC 6538 assessed as inhibition of biofilm formation at 1X to 10XMIC incubated for 24 hrs by crystal violet staining based analysis; type: functional, organism-based
Staphylococcus aureus [7] = experiment: Antibacterial activity against methicillin-resistant Staphylococcus aureus 21 assessed as inhibition of bacterial growth incubated for 24 hrs by tube microdilution assay; type: functional
HEK-293T = experiment: Cytotoxicity against HEK293T cells assessed as effect on cell viability at 3.13 to 400 ug/ml incubated for 24 hrs by CCK-8 assay; type: toxicity, cell-based; settings: human, dose 3.13-400 µg/ml
Pseudomonas aeruginosa [8] = experiment: Induction of bacterial cell rupture in Pseudomonas aeruginosa ATCC 27853 assessed as bacterial membrane damage with visible surface irregularities and protrusions at 5XMIC measured after 30 mins scanning electron microscopy; type: functional, organism-based
Staphylococcus aureus [9] = experiment: Antibacterial activity against methicillin-resistant Staphylococcus aureus 41 assessed as inhibition of bacterial growth incubated for 24 hrs by tube microdilution assay; type: functional
Pseudomonas aeruginosa [10] = experiment: Ratio of MIC for antibacterial activity against Pseudomonas aeruginosa ATCC 27853 measured following incubation of drug with mouse plasma for 8 hrs to MIC for antibacterial activity against Pseudomonas aeruginosa ATCC 27853; type: functional
Acinetobacter baumannii [11] = experiment: Antipersister-activity against Acinetobacter baumannii ATCC 19606 assessed as elimination of persister cells preincubated adherent persistent cells with colistin for 24 hrs followed by incubation with drug for 12 hrs; type: functional, organism-based
Staphylococcus aureus [12] = experiment: Antibacterial activity against methicillin-resistant Staphylococcus aureus 52 assessed as inhibition of bacterial growth incubated for 24 hrs by tube microdilution assay; type: functional
Escherichia coli [13] = experiment: Antibacterial activity against Escherichia coli 1007 assessed as inhibition of bacterial growth incubated for 24 hrs by tube microdilution assay; type: functional
Staphylococcus aureus [14] = experiment: Antibacterial activity against Staphylococcus aureus 157752 assessed as inhibition of bacterial growth incubated for 24 hrs by tube microdilution assay; type: functional
Acinetobacter baumannii [15] = experiment: Antibacterial activity against Acinetobacter baumannii 19110 assessed as inhibition of bacterial growth incubated for 24 hrs by tube microdilution assay; type: functional
Staphylococcus aureus [16] = experiment: Antipersister-activity against Staphylococcus aureus ATCC 6538 assessed as elimination of persister cells preincubated adherent persistent cells with vancomycin for 24 hrs followed by incubation with drug for 12 hrs; type: functional, organism-based
Staphylococcus aureus [17] = experiment: Antibacterial activity against Staphylococcus aureus 15772 assessed as inhibition of bacterial growth incubated for 24 hrs by tube microdilution assay; type: functional
Pseudomonas aeruginosa [18] = experiment: Antibacterial activity against Pseudomonas aeruginosa 60357 assessed as inhibition of bacterial growth incubated for 24 hrs by tube microdilution assay; type: functional
Staphylococcus aureus [19] = experiment: Antibacterial activity against Staphylococcus aureus ATCC 6538 infected in BALB/c mouse assessed as inhibition of bacterial colonization on wounded skin at 2 mg/ml applied on skin and measured after 2 hrs relative to control; type: functional
Cell membrane [20] = experiment: Induction of membrane permeabilization in Staphylococcus aureus ATCC 6538 assessed as increase in fluorescence intensity at 1X to 10XMIC measured for 90 mins by propidium iodide staining based fluorescence analysis; type: subcellular
Pseudomonas aeruginosa [21] = experiment: Antibacterial activity against Pseudomonas aeruginosa 90068 assessed as inhibition of bacterial growth incubated for 24 hrs by tube microdilution assay; type: functional
Staphylococcus aureus [22] = experiment: Antibiofilm activity against preformed Staphylococcus aureus ATCC 6538 biofilms assessed as biofilm eradication at 1X to 10XMIC incubated for 24 hrs by crystal violet staining based analysis; type: functional, organism-based
Staphylococcus aureus [23] = experiment: Antibacterial activity against methicillin-resistant Staphylococcus aureus Z assessed as inhibition of bacterial growth incubated for 24 hrs by tube microdilution assay; type: functional
Staphylococcus aureus [24] = experiment: Antibacterial activity against methicillin-resistant Staphylococcus aureus 42 assessed as inhibition of bacterial growth incubated for 24 hrs by tube microdilution assay; type: functional
Staphylococcus aureus [25] = experiment: Ratio of MIC for antibacterial activity against Staphylococcus aureus ATCC 6538 measured following incubation of drug with mouse plasma for 8 hrs to MIC for antibacterial activity against Staphylococcus aureus ATCC 6538; type: functional
Staphylococcus aureus [26] = experiment: Antibacterial activity against methicillin-resistant Staphylococcus aureus 11 assessed as inhibition of bacterial growth incubated for 24 hrs by tube microdilution assay; type: functional
Staphylococcus aureus [27] = experiment: Antibacterial activity against Staphylococcus aureus 15775 assessed as inhibition of bacterial growth incubated for 24 hrs by tube microdilution assay; type: functional
Acinetobacter baumannii [28] = experiment: Antibiofilm activity against Acinetobacter baumannii ATCC 19606 assessed as inhibition of biofilm formation at 1X to 10XMIC incubated for 24 hrs by crystal violet staining based analysis; type: functional, organism-based
Acinetobacter baumannii [29] = experiment: Antibacterial activity against Acinetobacter baumannii ATCC 19606 assessed as inhibition of bacterial growth by tube microdilution assay; type: functional
Staphylococcus aureus [30] = experiment: Antibacterial activity against Staphylococcus aureus 11842 assessed as inhibition of bacterial growth incubated for 24 hrs by tube microdilution assay; type: functional
Acinetobacter baumannii [31] = experiment: Antibacterial activity against Acinetobacter baumannii ATCC 19606 infected in BALB/c mouse assessed as inhibition of bacterial colonization on wounded skin at 0.1 to 2 mg/ml applied on skin and measured after 2 hrs; type: functional, organism-based; settings: dose 0.1-2 mg/ml
Cell membrane [32] = experiment: Induction of membrane permeabilization in Acinetobacter baumannii 0357 assessed as increase in fluorescence intensity at 1X to 10XMIC measured for 90 mins by propidium iodide staining based fluorescence analysis; type: subcellular
Erythrocyte = experiment: Induction of hemolysis in mouse red blood cells at 1.56 to 100 ug/ml incubated for 1 hr; type: toxicity, cell-based; settings: dose 1.56-100 µg/ml
Staphylococcus aureus [33] = experiment: Antibacterial activity against Staphylococcus aureus 220823 assessed as inhibition of bacterial growth incubated for 24 hrs by tube microdilution assay; type: functional
Staphylococcus aureus [34] = experiment: Antibacterial activity against methicillin-resistant Staphylococcus aureus 12 assessed as inhibition of bacterial growth incubated for 24 hrs by tube microdilution assay; type: functional
Staphylococcus aureus [35] = experiment: Bactericidal activity against Staphylococcus aureus ATCC 6538 assessed as elimination of bacterial cells at 5X to 10X MIC measured within 3 hrs by killing kinetic assay; type: functional
Acinetobacter baumannii [36] = experiment: Antibacterial activity against Acinetobacter baumannii 10769 assessed as inhibition of bacterial growth incubated for 24 hrs by tube microdilution assay; type: functional
[37] = Toxicity against C57BL/6J mouse assessed as behavioural changes at 10 to 20 mg/kg, iv measured for 48 hrs post-injection; type: organism-based; settings: in vivo, dose 10-20 mg/kg

Substance: H-RRGIKKFIKKVKKVKKAI-OH
- Activity (Acinetobacter baumannii [1]): Active
- Activity (HaCaT): Non-toxic
- MIC (Escherichia coli [2]): 9.37 µg/mL
- MIC (Staphylococcus aureus [3]): 2.34 µg/mL
- MIC (Escherichia coli [4]): 9.37 µg/mL
- inhibition in vivo at 500 µg/mL (Staphylococcus aureus [5]): 71.8%
- Activity (Staphylococcus aureus [6]): Dose-dependent-effect
- MIC (Staphylococcus aureus [7]): 2.34 µg/mL
- Activity (HEK-293T): Non-toxic
- Activity (Pseudomonas aeruginosa [8]): Active
- MIC (Staphylococcus aureus [9]): 2.34 µg/mL
- Ratio (Pseudomonas aeruginosa [10]): 4
- Activity (Acinetobacter baumannii [11]): Dose-dependent-effect
- MIC (Staphylococcus aureus [12]): 2.34 µg/mL
- MIC (Escherichia coli [13]): 9.37 µg/mL
- MIC (Staphylococcus aureus [14]): 2.34 µg/mL
- MIC (Acinetobacter baumannii [15]): 2.34 µg/mL
- Activity (Staphylococcus aureus [16]): Dose-dependent-effect
- MIC (Staphylococcus aureus [17]): 2.34 µg/mL
- MIC (Pseudomonas aeruginosa [18]): 1.17 µg/mL
- inhibition in vivo at 2000 µg/mL (Staphylococcus aureus [19]): 82.4%
- Activity (Cell membrane [20]): Dose-dependent-effect
- MIC (Pseudomonas aeruginosa [21]): 1.17 µg/mL
- Activity (Staphylococcus aureus [22]): Active
- MIC (Staphylococcus aureus [23]): 2.34 µg/mL
- MIC (Staphylococcus aureus [24]): 2.34 µg/mL
- Ratio (Staphylococcus aureus [25]): 4
- MIC (Staphylococcus aureus [26]): 2.34 µg/mL
- MIC (Staphylococcus aureus [27]): 2.34 µg/mL
- Activity (Acinetobacter baumannii [28]): Dose-dependent-effect
- MIC (Acinetobacter baumannii [29]): 2.34 µg/mL
- MIC (Staphylococcus aureus [30]): 2.34 µg/mL
- Activity (Acinetobacter baumannii [31]): Dose-dependent-effect; Less Efficacy Compared To Colistin, Reflected By Reduced Efficacy After Plasma Treatment
- Activity (Cell membrane [32]): Dose-dependent-effect
- Activity (Erythrocyte): Non-toxic
- MIC (Staphylococcus aureus [33]): 2.34 µg/mL
- MIC (Staphylococcus aureus [34]): 2.34 µg/mL
- Activity (Staphylococcus aureus [35]): 100%
- MIC (Acinetobacter baumannii [36]): 2.34 µg/mL
- Activity [37]: Non-toxic
